Experimental data reported in patent US10202351B2, “Pyrazolyl derivatives as pest control agents” (BAYER ANIMAL HEALTH GMBH, priority 2015, dated 2019).

Key:
[1] = test system: Phaedon cochleariae; test: Phaedon cochleariae spray test; type: in vivo; details: larvae on Chinese cabbage leaf discs, after 7 days
Protocol: (§1) Solvent: 78.0 parts by weight of acetone • • 1.5 parts by weight of dimethylformamide Emulsifier: alkylaryl polyglycol ether […] To produce further test concentrations, the formulation is diluted with emulsifier-containing water. Discs of Chinese cabbage leaves (Brassica pekinensis) are sprayed with an active ingredient formulation of the desired concentration and, after drying, populated with larvae of the mustard beetle (Phaedon cochleariae).

[2] = test system: Musca domestica; test: Musca domestica test; type: in vivo; details: adult houseflies, kill after 2 days
Protocol: (§2) Solvent: dimethyl sulfoxide
(§3) To produce a suitable preparation of active compound, 10 mg of active compound are mixed with 0.5 ml of dimethyl sulfoxide, and the concentrate is diluted with water to the desired concentration.
Vessels containing a sponge treated with sugar solution and the active ingredient formulation of the desired concentration are populated with 10 adult houseflies (Musca domestica)).
After 2 days, the kill in % is determined. 100% means that all of the flies have been killed; 0% means that none of the flies have been killed.

[3] = test system: Boophilus microplus; test: Boophilus microplus injection test; type: in vivo; details: after 7 days, laying of fertile eggs
Protocol: Solvent: dimethyl sulfoxide […] The animals are transferred into dishes and kept in a climate-controlled room. Efficacy is assessed after 7 days by laying of fertile eggs. Eggs which are not visibly fertile are stored in a climate-controlled cabinet until the larvae hatch after about 42 days.

[4] = test system: Ctenocephalides felis; test: Ctenocephalides felis oral test; type: in vivo; details: kill after 2 days
Source text: Solvent: dimethyl sulfoxide […] Dilution with citrated cattle blood gives the desired concentration. About 20 unfed adult cat fleas (Ctenocephalides felis) are placed into a chamber which is closed at the top and bottom with gauze. A metal cylinder whose bottom end is closed with parafilm is placed onto the chamber. The cylinder contains the blood/active ingredient formulation, which can be imbibed by the fleas through the parafilm membrane.

[5] = test system: Lucilia cuprina; test: Lucilia cuprina test; type: in vivo; details: L1 larvae, kill after 2 days
Protocol: as §2, §3
About 20 L1 larvae of the Australian sheep blowfly (Lucilia cuprina) are transferred into a test vessel containing minced horsemeat and the active compound formulation of the desired concentration.
After 2 days, the kill in % is determined. 100% means that all the larvae have been killed; 0% means that no larvae have been killed.

[6] = test system: Spodoptera frugiperda; test: Spodoptera frugiperda spray test; type: in vivo; details: application rate 100 g/ha, caterpillars on maize leaf discs, after 7 days
Protocol: as §1, with “Leaf discs” for “Discs”, “maize (Zea mays)” for “Chinese cabbage leaves (Brassica pekinensis)”, “compound” for “ingredient”, “caterpillars” for “larvae”, “armyworm (Spodoptera frugiperda).” for “mustard beetle (Phaedon cochleariae).”

[7] = test system: Tetranychus urticae; test: Tetranychus urticae spray test, OP-resistant; type: in vivo; details: all stages on bean leaf discs, after 6 days
Protocol: Solvent: 78.0 parts by weight of acetone • • 1.5 parts by weight of dimethylformamide Emulsifier: alkylaryl polyglycol ether […] To produce further test concentrations, the formulation is diluted with emulsifier-containing water. Discs of bean leaves (Phaseolus vulgaris) infested with all stages of the greenhouse red spider mite (Tetranychus urticae) are sprayed with an active ingredient formulation of the desired concentration.

[8] = test system: Ctenocephalides felis; test: Ctenocephalides felis in vitro contact test with adult cat fleas; type: in vivo; details: application rate 5 μg/cm^2 (500 g/ha), after 48 h, dead or moribund fleas
Protocol: After the solvent has evaporated off, the tubes are populated with 5-10 adult cat fleas (Ctenocephalides felis), sealed with a perforated plastic lid and incubated in a horizontal position at room temperature and ambient humidity. After 48 h, efficacy is determined. To this end, the tubes are stood upright and the fleas are knocked to the base of the tube. Fleas which remain motionless at the base or move in an uncoordinated manner are considered to be dead or moribund.

[9] = test system: Rhipicephalus sanguineus; test: Rhipicephalus sanguineus in vitro contact test with adult brown dog ticks; type: in vivo; details: application rate 1 μg/cm^2 (100 g/ha), after 48 h, dead or moribund ticks
Protocol: After the solvent has evaporated off, the tubes are populated with 5-10 adult dog ticks (Rhipicephalus sanguineus), sealed with a perforated plastic lid and incubated in a horizontal position in the dark at room temperature and ambient humidity. After 48 h, efficacy is determined. To this end, the ticks are knocked to the base of the tube and incubated on a hotplate at 45-50° C. for not more than 5 min. Ticks which remain motionless on the base or move in such an uncoordinated manner that they are unable to deliberately avoid the heat by climbing upwards are considered to be dead or moribund.

[10] = logP determination by HPLC on reversed-phase column (EEC Directive 79/831 Annex V.A8); type: physicochemical; details: Table 1; HPLC C18, acetonitrile/water with formic acid
[11] = application rate 100 ppm in citrated cattle blood

Cc1ncc(-c2cnn(-c3c(Cl)cc(C(F)(C(F)(F)F)C(F)(F)F)cc3Cl)c2)cc1NC(=O)c1ccc(F)cc1 [Example 17]
100%: efficacy ([1]; application rate 100 g/ha) | efficacy ([2]; application rate 20 ppm) | efficacy ([3]; application rate 4 μg/animal) | efficacy ([4]; application rate 20 ppm in citrated cattle blood) | efficacy ([5]; application rate 20 ppm) | efficacy [6] | efficacy ([7]; application rate 100 g/ha) | efficacy [8]

Cc1cc(C(F)(C(F)(F)F)C(F)(F)F)cc(C(F)(F)F)c1-n1cc(-c2ccc(F)c(NC(=O)c3ccc(F)cc3)c2F)cn1 [Example 23]
80%: efficacy ([2]; application rate 100 ppm)
100%: efficacy ([1]; application rate 100 g/ha) | efficacy ([3]; application rate 20 μg/animal) | efficacy [4, 11] | efficacy ([5]; application rate 100 ppm) | efficacy [6] | efficacy [9]

Cc1cc(C(F)(C(F)(F)F)C(F)(F)F)cc(C(F)(F)F)c1-n1cc(-c2ccc(F)c(NC(=O)c3ccncc3)c2F)cn1 [Example 25]
100%: efficacy ([1]; application rate 100 g/ha) | efficacy ([2]; application rate 100 ppm) | efficacy ([3]; application rate 20 μg/animal) | efficacy [4, 11] | efficacy ([5]; application rate 100 ppm) | efficacy [6] | efficacy ([7]; application rate 100 g/ha) | efficacy [8]

Cc1cc(C(F)(C(F)(F)F)C(F)(F)F)cc(C(F)(F)F)c1-n1cc(-c2cc(NC(=O)c3cocn3)ccc2F)cn1 [Example 2-12]
90%: efficacy ([5]; application rate 100 ppm)
95%: efficacy [4, 11]
100%: efficacy ([1]; application rate 100 g/ha) | efficacy ([3]; application rate 20 μg/animal) | efficacy [6] | efficacy [9]

Cc1cc(C(F)(C(F)(F)F)C(F)(F)F)cc(C(F)(F)F)c1-n1cc(-c2ccc(F)c(NC(=O)C3(C)CC3)c2)cn1 [Example 30]
100%: efficacy ([1]; application rate 100 g/ha) | efficacy ([2]; application rate 100 ppm) | efficacy ([3]; application rate 20 μg/animal) | efficacy [4, 11] | efficacy ([5]; application rate 100 ppm) | efficacy [6] | efficacy [8]

O=C(Nc1cccc(-c2cnn(-c3c(Cl)cc(C(F)(F)F)cc3Cl)c2)c1)c1ccncc1 [Example 3]
100%: efficacy ([1]; application rate 500 g/ha) | efficacy ([3]; application rate 20 μg/animal)
lgP 3.2: lgP [10]
90%: efficacy [4, 11] | efficacy ([7]; application rate 500 g/ha)

Cc1cc(C(F)(C(F)(F)F)C(F)(F)F)cc(C(F)(F)F)c1-n1cc(-c2cccc(NC(=O)c3ccc(C#N)nc3)c2F)cn1 [Example 69]
100%: efficacy ([1]; application rate 100 g/ha) | efficacy ([3]; application rate 20 μg/animal) | efficacy [4, 11] | efficacy ([5]; application rate 100 ppm) | efficacy [6] | efficacy [8]

Cc1cc(C(F)(C(F)(F)F)C(F)(F)F)cc(C(F)(F)F)c1-n1cc(-c2cccc(NC(=O)c3cocn3)c2F)cn1 [Example 77]
100%: efficacy ([1]; application rate 100 g/ha) | efficacy ([2]; application rate 100 ppm) | efficacy ([3]; application rate 20 μg/animal) | efficacy [4, 11] | efficacy ([5]; application rate 100 ppm) | efficacy [6] | efficacy [9]

Cc1cc(C(F)(C(F)(F)F)C(F)(F)F)cc(C)c1-n1cc(-c2ccc(F)c(NC(=O)c3cncnc3)c2)cn1 [Example 15]
lgP 3.95: lgP [10]
100%: efficacy ([1]; application rate 100 g/ha) | efficacy ([2]; application rate 100 ppm) | efficacy ([3]; application rate 20 μg/animal) | efficacy [4, 11] | efficacy ([5]; application rate 100 ppm) | efficacy [6] | efficacy [8]

Cc1cc(C(F)(C(F)(F)F)C(F)(F)F)cc(C)c1-n1cc(-c2ccc(F)c(NC(=O)c3ccncc3)c2F)cn1 [Example 9]
100%: efficacy ([1]; application rate 100 g/ha) | efficacy ([2]; application rate 100 ppm) | efficacy ([3]; application rate 20 μg/animal) | efficacy [4, 11] | efficacy ([5]; application rate 100 ppm) | efficacy [6] | efficacy ([7]; application rate 100 g/ha)
lgP 3.92: lgP [10]
